# Read-outs that look alike come from different tables or passages of the source. Ends that are not written are not given here. Peptide text beside a SMILES is read from it.
# Tests used:
# mouse vas deferens = assay: Inhibition of the twitch induced by electrical stimulation of mouse vas deferens; format: cell-based; settings: for Inhibition of the twitch induced by electric stimulation, Antagonist pA2: against N/OFQ; for Functional behaviour in mouse vas deferens: compared with N/OFQ maximal effect
# Description: The compounds were tested in vitro on Hamster oocytes membranes expressing the human recombinant NOP receptor (CHOhNoP) (receptor binding experiments and GTP?S binding stimulation experiments) and on the mouse vas deferens after electrical stimulation.
# [1] = biological target: T1, human recombinant NOP receptors expressed in HEK293 cells (Homo sapiens, UniProt P41146); settings: Okada et al. 2000; cited from earlier work
# T1 construct: host or cells: HEK293 cells
# mice [2] = assay: Spontaneous locomotor activity in mice; format: in vivo, mouse
# Description: Control animals received one i.c.v. injection of saline (2 μl/mouse). Each point represents the mean±s.e.m. of at least 4 experiments.
# 3) assay for measurement of spontaneous locomotor activity, as described by Rizzi et al., (Naunyn Schmiedebergs Arch Pharmacol 363, 161-165, 2001.
# [3] = Metabolic stability in mouse plasma; format: in vitro ADME; settings: for half-life at 6 μg/μl: male, Swiss, mouse, plasma, pH 7.4, mouse plasma; for Plasma T½ compared to N/OFQ: mouse plasma
# Description: (§1) Plasma and brain tissue samples were obtained from male Swiss mice (Morini, Reggio Emilia, Italy, 25-30 g). The animal, sacrificed by ether anesthesia, was perfused with physiological heparin solution injected through a needle placed in the left ventricle. Blood was then withdrawn and was centrifuged at 14000×g for 2 minutes at room temperature. After separation from the pellet, the plasma was aliquoted and stocked at −80° C. After blood withdrawal, the animal was perfused further with a physiological solution for 2 minutes before brain removal. The brain tissue was homogenized in 5 vol. (w/v) of Tris/HCl (50 mM, pH 7.4, 0° C.) with a ultra-Turrax (Janke Kunkel, Staufen, FRG) 3 times for 15 seconds each. The supernatant obtained by centrifugation (3000×g for 15 min at 4° C.) was decanted and then stocked at −80° C.
# (§2) The protein content of the preparations, determined by the Bradford method, as described in Anal. Biochem., 72, 248-254, 1976, was approximately 8 μg/μl for the brain homogenate and 17 μg/μl for the plasma
# (§3) An aliquot of 100 μl solution of each peptide (3 mg/500 μl Tris) was incubated (at a final concentration of […]) with brain homogenate or plasma (450 μl) in a total volume of 1 ml, containing Tris/HCl 50 mM pH 7.4 buffer. Incubation of the aliquots was carried out at 37° C. for various periods up to 240 min. At different incubation times, an aliquot of the solution (100 μl) was removed and the degradation was blocked by addition of 4.5% TFA solution (200 μl). After centrifugation (3000 rpm for 15 minutes) an aliquot (100 μl) of supernatant was injected into RP-HPLC. HPLC analysis was performed in a Kromasil 100-5C18 column (4.6×250 mm) using a Beckman System Gold chromatography system equipped with a variable wave length UV detector.
# (§4) The experimental conditions for elution included a gradient analysis with water (solvent A) and acetonitrile (solvent B), both containing 0.1% TFA, at a flow rate of 0.7 ml/min. The following protocol was used for gradient analysis, selected on the basis of the physico-chemical characteristics of the analyte: linear gradient from 5% to 40% B in 20 minutes; linear gradient from 40% to 60% B in 5 minutes; linear gradient from 60% to 5% B in 5 minutes. The eluate was monitored at 220 nm. The half life (T1/2) was obtained by linear regression with the least square method, diagramming the peak areas of each derivative as a function of the incubation times, using at least five points for each analysis.
# [4] = Metabolic stability in mouse brain homogenate; format: in vitro ADME; settings: male, Swiss, pH 7.4, mouse brain homogenate, 37° C., mean±standard deviation, read-out: T½ Brain
# Description: as §1, §2, §3, §4
# mice [5] = assay: Food intake in fed mice; format: in vivo, mouse
# From the text: 2) measurement of food intake in fed animals, as described by Rizzi et al. (National Congress of the Italian Society of Neuroscience and joint Italian-Swedish Neuroscience Meetings, Ischia (Napoli) 1-4 Oct. 2005);
# [6] = system: vas deferens of knockout mice for the NOP receptor (NOP−/−); assay: Electrically stimulated vas deferens from NOP receptor knockout mice; format: cell-based, mouse; settings: Table 2
# [7] = biological target: T2, human recombinant opioid receptor mu (MOP) (Homo sapiens, UniProt P35372); assay: Receptor binding on CHO membranes, [3H]-Diprenorphine
# T2 construct: expressed in transfected cells; host or cells: CHO cells, membranes
# [8] = biological target: T3, human recombinant opioid receptor delta (DOP) (Homo sapiens, UniProt P41143); assay: as above
# T3 construct: expressed in transfected cells; host or cells: CHO cells, membranes
# [9] = biological target: T4, human recombinant NOP receptor (Homo sapiens, UniProt P41146); assay: Stimulation of GTP?S binding on CHOhNOP membranes; format: biochemical; settings: for Functional behaviour in GTP?S binding: compared with N/OFQ maximal effect
# T4 construct: expressed in transfected cells; host or cells: CHO cells (CHOhNOP), membranes
# [10] = biological target: T4, human recombinant NOP receptor; assay: Receptor binding, displacement of tritiated N/OFQ on CHOhNOP membranes; settings: Receptor binding PKi, Table 1; membrane of CHOhNOP cells; tritiated N/OFQ
# [11] = 37° C., mean±standard deviation, read-out: T½ Plasma
# [12] = Table 2, wild type (NOP+/+) mice
# T4 sequence (P41146 whole entry): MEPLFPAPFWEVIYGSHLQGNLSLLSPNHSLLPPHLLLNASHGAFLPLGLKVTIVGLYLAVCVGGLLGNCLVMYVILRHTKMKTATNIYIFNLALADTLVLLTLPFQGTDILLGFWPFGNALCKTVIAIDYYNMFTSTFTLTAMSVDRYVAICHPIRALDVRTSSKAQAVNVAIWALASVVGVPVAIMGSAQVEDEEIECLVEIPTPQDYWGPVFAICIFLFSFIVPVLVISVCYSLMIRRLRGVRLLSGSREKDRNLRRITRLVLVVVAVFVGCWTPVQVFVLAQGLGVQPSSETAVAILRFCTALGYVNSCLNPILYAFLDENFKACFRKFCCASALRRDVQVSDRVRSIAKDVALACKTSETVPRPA
# T1 sequence (P41146 whole entry): as above
# T2 sequence (P35372 whole entry): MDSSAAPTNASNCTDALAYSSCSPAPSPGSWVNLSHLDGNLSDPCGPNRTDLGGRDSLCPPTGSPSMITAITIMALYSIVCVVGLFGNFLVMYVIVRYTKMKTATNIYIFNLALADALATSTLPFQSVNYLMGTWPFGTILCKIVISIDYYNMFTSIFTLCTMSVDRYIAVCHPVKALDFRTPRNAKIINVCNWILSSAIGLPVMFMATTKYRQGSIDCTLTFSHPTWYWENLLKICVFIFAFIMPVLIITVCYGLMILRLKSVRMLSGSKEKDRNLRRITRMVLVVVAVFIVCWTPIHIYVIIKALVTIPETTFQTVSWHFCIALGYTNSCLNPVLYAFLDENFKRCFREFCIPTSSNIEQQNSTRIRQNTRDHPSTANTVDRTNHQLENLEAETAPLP
# T3 sequence (P41143 whole entry): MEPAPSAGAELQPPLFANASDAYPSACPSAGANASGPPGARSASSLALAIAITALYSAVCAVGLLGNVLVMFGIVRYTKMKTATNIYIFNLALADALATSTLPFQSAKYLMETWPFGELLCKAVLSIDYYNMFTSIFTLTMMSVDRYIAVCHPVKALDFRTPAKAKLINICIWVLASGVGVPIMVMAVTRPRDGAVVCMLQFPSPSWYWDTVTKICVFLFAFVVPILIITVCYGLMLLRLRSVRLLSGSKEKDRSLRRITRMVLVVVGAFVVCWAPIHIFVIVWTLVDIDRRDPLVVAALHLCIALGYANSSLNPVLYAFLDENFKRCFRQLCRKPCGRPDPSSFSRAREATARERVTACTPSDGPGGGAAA
molecule,measurement,setting,value
"N/OFQ-NH2 (FGGFTGARKSARKLANQ-NH2; UniProt Q13519 130-146, looked up) [reference compound]",Emax,mouse vas deferens,93 ± 2%
"[Arg^14,Lys^15]N/OFQ",Potency relative to N/OFQ,[1],17 fold
[Deg^7]N/OFQ-NH2,Emax,mouse vas deferens; Table 4,89 ± 2%
same,pEC50 (CL 95%),mouse vas deferens; Table 4,7.91 (7.53-8.27)
"CC(C)C[C@H](NC(=O)[C@H](CCCCN)NC(=O)[C@H](CCCNC(=N)N)NC(=O)[C@H](C)NC(=O)[C@H](CO)NC(=O)[C@H](CCCCN)NC(=O)[C@H](CCCNC(=N)N)NC(=O)[C@H](C)NC(=O)CNC(=O)[C@@H](NC(=O)[C@H](Cc1ccccc1)NC(=O)CNC(=O)CNC(=O)[C@@H](N)Cc1ccccc1)[C@@H](C)O)C(=O)N[C@@H](C)C(=O)N[C@@H](CC(N)=O)C(=O)N[C@@H](CCC(N)=O)C(=O)O [N/OFQ, reference compound]",Time after i.c.v. injection at which locomotor effect ended,mice [2]; 10 nmol i.c.v.,60 min
same,Effect on spontaneous locomotor activity,"mice [2]; i.c.v., N/OFQ 10 nmol, UFP-112 0.1 nmol",inhibited the locomotor activity
same,half-life at 6 μg/μl,[3]; [11],1.07 ± 0.0167 h
same,half-life at 6 μg/μl,[3]; read-out: Half life in the plasma (converted),~1 h
same,half-life at 6 μg/μl,[4],~0.05 h
same,Hyperphagic effects in NOP−/− mice,mice [5]; NOP−/− mice,absent
same,Effect on food intake,"mice [5]; fed mice, equi-effective doses",significant increase
same,"Inhibition of the twitch induced by electric stimulation, Agonist Emax",mouse vas deferens; Table 1,−84 ± 3%
same,"Inhibition of the twitch induced by electric stimulation, Agonist pEC50",mouse vas deferens; Table 1,7.39
same,Emax NOP+/+,mouse vas deferens; [12],84 ± 4%
[(aMe)D/L-Val^7]N/OFQ-NH2 [[(aMe)D/L-Val^7]N/OFQ-NH2 (diastereomer 2)],Emax,mouse vas deferens; Table 4,95 ± 1%
same,pEC50 (CL 95%),mouse vas deferens; Table 4,7.56 (7.34-7.78)
[Ac6c^11]N/OFQ-NH2,Emax,mouse vas deferens; Table 4,89 ± 4%
same,pEC50 (CL 95%),mouse vas deferens; Table 4,7.79 (7.53-8.05)
[(aMe)D/L-Leu^11]N/OFQ-NH2,Emax,mouse vas deferens; Table 4,91 ± 4%
same,pEC50 (CL 95%),mouse vas deferens; Table 4,7.87 (7.67-8.07)
[(aMe)D/L-Leu^7]N/OFQ-NH2 [[(aMe)D/L-Leu^7]N/OFQ-NH2 (diastereomer 1)],Emax,mouse vas deferens; Table 4,84 ± 1%
same,pEC50 (CL 95%),mouse vas deferens; Table 4,7.33 (7.04-7.62)
[Ac5c^11]N/OFQ-NH2,Emax,mouse vas deferens; Table 4,89 ± 4%
same,pEC50 (CL 95%),mouse vas deferens; Table 4,8.08 (7.93-8.23)
"DPDPE [[D-Pen^2,D-Pen^5]-Enkephalin, reference compound]",Emax NOP−/−,[6],91 ± 5%
same,pEC50 NOP−/−,[6],8.20
same,Emax NOP+/+,mouse vas deferens; [12],93 ± 3%
same,pEC50 NOP+/+,mouse vas deferens; [12],8.40
[Dpg^11]N/OFQ-NH2,Emax,mouse vas deferens; Table 4,86 ± 3%
same,pEC50 (CL 95%),mouse vas deferens; Table 4,7.53 (7.17-8.04)
[(aMe)D/L-Leu^7]N/OFQ-NH2 [[(aMe)D/L-Leu^7]N/OFQ-NH2 (diastereomer 2)],Emax,mouse vas deferens; Table 4,95 ± 2%
same,pEC50 (CL 95%),mouse vas deferens; Table 4,7.12 (7.02-7.22)
[Ac6c^7]N/OFQ-NH2,Emax,mouse vas deferens; Table 4,87 ± 1%
same,pEC50 (CL 95%),mouse vas deferens; Table 4,7.20 (6.86-7.54)
[Iva^7]N/OFQ-NH2 [[Iva^7]N/OFQ-NH2 (diastereomer 2)],Emax,mouse vas deferens; Table 4,88 ± 3%
same,pEC50 (CL 95%),mouse vas deferens; Table 4,7.62 (7.32-7.92)
[Ac5c^7]N/OFQ-NH2,Emax,mouse vas deferens; Table 4,98 ± 1%
same,pEC50 (CL 95%),mouse vas deferens; Table 4,7.60 (7.40-7.80)
[Ac3c^11]N/OFQ-NH2,Emax,mouse vas deferens; Table 4,91 ± 4%
same,pEC50 (CL 95%),mouse vas deferens; Table 4,7.78 (7.62-7.94)
"C[C@H](NC(=O)[C@H](CO)NC(=O)[C@H](CCCCN)NC(=O)[C@H](CCCNC(=N)N)NC(=O)C(C)(C)NC(=O)CNC(=O)[C@@H](NC(=O)[C@H](Cc1ccccc1)NC(=O)CNC(=O)CNC(=O)CNCc1ccccc1)[C@@H](C)O)C(=O)N[C@@H](CCCNC(=N)N)C(=O)N[C@@H](CCCCN)C(=O)N[C@@H](CCCNC(=N)N)C(=O)N[C@@H](CCCCN)C(=O)N[C@@H](CC(N)=O)C(=O)N[C@@H](CCC(N)=O)C(N)=O [UFP-111, [Nphe^1,Aib^7,Arg^14,Lys^15]N/OFQ-NH2]",Ki,[7],> 10000 nM
same,half-life at 6 μg/μl,[3]; [11],2.28 ± 0.0667 h
same,Plasma T½ compared to N/OFQ,[3],about twice as long
same,Ki,[8],> 10000 nM
same,half-life at 6 μg/μl,[4],0.183 ± 0.0317 h
same,Kb,[9],2.09 nM
same,"Stimulation upon binding GTP?S, Agonist pEC50","[9]; Table 1, membrane of CHOhNOP cells",Inactive
same,Functional behaviour in GTP?S binding,[9],competitive antagonist
same,"Inhibition of the twitch induced by electric stimulation, Agonist pEC50",mouse vas deferens; Table 1,Inactive
same,"Inhibition of the twitch induced by electric stimulation, Antagonist pA2",mouse vas deferens; Table 1,7.46
same,Functional behaviour in mouse vas deferens,mouse vas deferens,competitive antagonist
[(aMe)D/L-Val^11]N/OFQ-NH2 [[(aMe)D/L-Val^11]N/OFQ-NH2 (diastereomer 2)],Emax,mouse vas deferens; Table 4,86 ± 4%
same,pEC50 (CL 95%),mouse vas deferens; Table 4,7.83 (7.67-7.99)
[(aMe)D/L-Val^11]N/OFQ-NH2 [[(aMe)D/L-Val^11]N/OFQ-NH2 (diastereomer 1)],Emax,mouse vas deferens; Table 4,93 ± 2%
same,pEC50 (CL 95%),mouse vas deferens; Table 4,7.71 (7.37-8.05)
[Deg^11]N/OFQ-NH2,Emax,mouse vas deferens; Table 4,87 ± 4%
same,pEC50 (CL 95%),mouse vas deferens; Table 4,7.75 (7.43-7.89)
[(aMe)D/L-Val^7]N/OFQ-NH2 [[(aMe)D/L-Val^7]N/OFQ-NH2 (diastereomer 1)],Emax,mouse vas deferens; Table 4,88 ± 1%
same,pEC50 (CL 95%),mouse vas deferens; Table 4,7.26 (7.00-7.52)
[Dpg^7]N/OFQ-NH2,Emax,mouse vas deferens; Table 4,91 ± 4%
same,pEC50 (CL 95%),mouse vas deferens; Table 4,7.90 (7.71-8.11)
[Iva^7]N/OFQ-NH2 [[Iva^7]N/OFQ-NH2 (diastereomer 1)],Emax,mouse vas deferens; Table 4,91 ± 4%
same,pEC50 (CL 95%),mouse vas deferens; Table 4,7.83 (7.74-7.92)
"C[C@H](NC(=O)[C@H](CO)NC(=O)[C@H](CCCCN)NC(=O)[C@H](CCCNC(=N)N)NC(=O)C(C)(C)NC(=O)CNC(=O)[C@@H](NC(=O)[C@H](Cc1ccc(F)cc1)NC(=O)CNC(=O)CNC[C@@H](N)Cc1ccccc1)[C@@H](C)O)C(=O)N[C@@H](CCCNC(=N)N)C(=O)N[C@@H](CCCCN)C(=O)N[C@@H](CCCNC(=N)N)C(=O)N[C@@H](CCCCN)C(=O)N[C@@H](CC(N)=O)C(=O)N[C@@H](CCC(N)=O)C(N)=O [UFP-113, [Phe^1?(CH2—NH)Gly^2,(pF)Phe^4,Aib^7,Arg^14,Lys^15]N/OFQ-NH2] (HELM PEPTIDE1{[N[C@H](CNCC(=O)[*:2])Cc1ccccc1].G.[O=C([C@H](Cc1ccc(F)cc1)N[*:1])[*:2]].T.G.[Aib].R.K.S.A.R.K.R.K.N.Q.[am]}$$$$V2.0)",half-life at 6 μg/μl,[3]; [11],1.83 ± 0.167 h
same,Plasma T½ compared to N/OFQ,[3],about twice as long
same,half-life at 6 μg/μl,[4],0.205 ± 0.0133 h
same,EC50,[9],0.191 nM
same,Functional behaviour in GTP?S binding,[9],partial NOP receptor agonist
same,Emax,"[9]; read-out: Stimulation upon binding GTP?S, Agonist Emax",79 ± 3%
same,"Inhibition of the twitch induced by electric stimulation, Agonist pEC50",mouse vas deferens; Table 1,Variable agonist effects
same,"Inhibition of the twitch induced by electric stimulation, Antagonist pA2",mouse vas deferens; Table 1,9.28
same,Functional behaviour in mouse vas deferens,mouse vas deferens,partial NOP receptor agonist
same,Ki,[10],0.055 nM
[Ac3c^7]N/OFQ-NH2,Emax,mouse vas deferens; Table 4,98 ± 1%
same,pEC50 (CL 95%),mouse vas deferens; Table 4,7.08 (6.82-7.34)
"[Nphe1,Arg14,Lys15]N/OFQ-NH2 (XGGFTGARKSARKRKNQ; Nphe1, C-terminal amide; Synthetized. Featured in patent as UFP-101, ref. Calòet al. Br J Pharmacol 136, 303-311, 2002) [reference compound]",pA2 in competition with the endogenous agonist N/OFQ,mouse vas deferens; agonist N/OFQ,6.91
same,pA2 in competition with UFP-112,mouse vas deferens; agonist UFP-112,6.81

# Reference: patent publication US8227414B2 ([…].R.L., priority 2005, dated 2012)
